# Experimental data: patent US20090305259A1, “Early Diagnosis of Congenital Abnormalities in the Offspring of Diabetic Mothers” (YALE UNIVERSITY, priority 2006, published 2009)
# “Also recorded” adds a separate entry of the source.
# Columns and labels:
# yolk sac vasculogenesis = experiment: Whole conceptus culture: yolk sac vasculogenesis under hyperglycemia; type: cell-based, mouse; conditions: for rescue of hyperglycemia-arrested yolk sac vascular development (arborization): conceptus culture with 20 mM D-glucose plus agent, PECAM-1 staining
# Method: Timed pregnant mice are used to harvest 7.5 and 9.5 days post conception (dpc) conceptuses from which yolk sac and hearts are dissected. The atrioventricular canals are isolated for subsequent culture and analysis of the epithelial to mesenchymal transformation that occurs in the formation of the endocardial cushion.
# (§1) Conceptuses are cultured for 48 hrs in the presence of rat serum or rat serum+20 mM D-Glucose, or rat serum+20 mM D-Glucose+rVEGF or NO donor or 20 mM mannitol for 48 hrs. At 8.5 dpc the yolk sacs are harvested and analyzed using LC-MS and LC-MS-MS methods as well as by traditional cell and molecular biological methods. At 9.5 dpc atrioventricular (AV) canals are harvested from the conceptuses and cultured for 48 to 72 hrs on collagen gels to allow epithelial-mesenchymal transformation (EMT). The AV canal cultures are analyzed by double or triple label standard and confocal immunofluorescence microscopy, laser dissection capture microscopy followed by Western blotting for protein determination, characterization and localization. The effects of exogenous VEGF-A (1, 10 & 20 ng/ml), Pro- and mature BDNF (1, 25 & 50 ng/ml), NO donor (Noc-18) TIMP-1 and TIMP-2 (1, 25 & 50 ng/ml) on EMT and protein expression, post-translational modification and degradation are assessed.
# Using this embryo culture system, groups of ten 7.5 dpc conceptuses were cultured in normoglycemic conditions (5.0 mM D-glucose [control]), hyperglycemic conditions (20 mM D-glucose [HG]), HG+10 pg/ml VEGF A165 (HG+rVEGF) and HG+a slow release NO donor (HG+Noc-18) for 24 hrs. The conceptuses were harvested at 8.5 dpc when their yolk sacs were at the primary capillary plexus stage and beginning to undergo vascular remodeling. Lysates were then prepared for SDS-PAGE, Silver Staining and MS analysis. FIG. 4A depicts PECAM-1 staining of the capillary plexas at 8.5 dpc and illustrates the non-descript vascular plexus observable at this stage of development. […] This is in contrast to LC-MS and LC-MS-MS analyses of these samples (see below).
# cardiac EMT = conditions: cardiac A-V canal and outflow tract cultures, 20 mM D-glucose; cited from earlier work
# developing conceptuses = conditions: 250 mg/kg prior to mating; fast elimination; cited from earlier work
# NOGO A = experiment: Western blot of NOGO A in yolk sacs across treatment groups; type: cell-based, mouse; conditions: yolk sac culture, hyperglycemia plus agent, listed as NO donor
# Method: as §1
# (§2) Further, several of these proteins were validated in conceptus culture assays prior to and following VEGF and NO donor rescues using Western blotting, histological and immunolocalization analyses. […] Further, sequestration of Wnt16 (FIG. 11), ADAM 15 (FIG. 12), and NOGO A (FIG. 13) by antibodies directed against them abrogated EMT in cardiac AVC cushion explant cultures. […]
# ADAM 15 = experiment: Western blot of ADAM 15 in yolk sacs across treatment groups; type: cell-based, mouse; conditions: yolk sac / whole conceptus culture, 20 mM D-glucose plus agent
# Method: as §1, §2
# Wnt16 = experiment: Western blot of Wnt16 in yolk sacs across treatment groups; type: cell-based, mouse; conditions: yolk sac / whole conceptus culture, 20 mM D-glucose plus agent
# Method: as §1, §2
smiles,measurement,setting,value
OC[C@H]1O[C@H](O)[C@H](O)[C@@H](O)[C@@H]1O [alpha-D-glucose],effect on yolk sac vasculogenesis,"yolk sac vasculogenesis; transient (as little as 3 hr) exposure, 20 mM alpha-D-glucose",arrest yolk sac vasculogenesis at the primary capillary plexus stage
same,effect on cardiac cushion formation,cardiac EMT,arrested cushion formation
CN(N=O)C(=O)N[C@H]1C(O)O[C@H](CO)[C@@H](O)[C@@H]1O (mixture of isomers) [Streptozotocin],toxic effect on the developing conceptuses,developing conceptuses,no toxic effect
NCCN(CCN)/[N+]([O-])=N/O [NOC-18],NOGO A expression level (downregulated by hyperglycemia) after treatment,NOGO A,rescued; also recorded: returned to normal levels
same,rescue of hyperglycemia-arrested yolk sac vascular development (arborization),yolk sac vasculogenesis,rescue of the hyperglycemic arrest of vascular development; also recorded: restore normal vascular morphology; also recorded: rescue of yolk Sac vascular development
same,rescue of hyperglycemia-arrested yolk sac vascular development (arborization),yolk sac vasculogenesis; listed as NO donor,reversed
same,rescue of hyperglycemia-arrested yolk sac vascular development (arborization),yolk sac vasculogenesis; listed as NOD,restores vascular arborization
same,ADAM 15 expression level (downregulated by hyperglycemia) after treatment,ADAM 15,up-regulated to near normoglycemic levels
same,ADAM 15 expression level (downregulated by hyperglycemia) after treatment,ADAM 15; listed as NO donor,rescued; also recorded: returned to normal levels
same,Wnt16 expression level (upregulated by hyperglycemia) after treatment,Wnt16,down-regulated to near normoglycemic levels
same,Wnt16 expression level (upregulated by hyperglycemia) after treatment,Wnt16; listed as NO donor,rescued; also recorded: returned to normal levels
